Reference: patent publication US7875631B2, “Tetrahydroisoquinoline-and tetrahydrobenzazepine derivatives as igf-1 r inhibitors” (Analytecon S.A., priority 2004, dated 2011)

Tests used:
[1] = system: SK-MEL 28 cells; test: Cell death by apoptosis, Annexin V staining, SK-MEL 28; assay type: cell-based, human; settings: 500 ng/ml
Experimental: (§1) Jurkat and SK-MEL 28 cells were incubated with the compound (I) from example 3 for 6, 24 and 48 hours, after which the percentage of apoptotic cells were determined by Annexin V staining.
(§2) The numbers depicted in the Table represent the percentage of Annexin-V positive cells.

[2] = system: Jurkat cells; test: Cell death by apoptosis, Annexin V staining, Jurkat; assay type: cell-based, human; settings: for percentage of Annexin-V positive cells: Jurkat, 500 ng/ml
Experimental: as §1, §2

[3] = system: SK-Mel-28 cells; test: Interaction with cell division, mitotic index; assay type: cell-based, human; settings: four hours (vehicle 1.7)
Experimental: The mitotic index was determined after incubation of SK-Mel-28 cells with vehicle, the compound (I) of example 3 and nocodazole for four hours [essentially as described by C. L. Rieder et al.: Current Biology 10(2000) 1067-1070].

[4] = biological target: T1, insulin receptor (IR) (Homo sapiens, UniProt P06213); test: Inhibition of phosphorylation of insulin receptor (IR) in SK-MEL-28; assay type: cell-based; settings: 1 microgram/ml, 2 hours
T1 construct: endogenous in cells; host or cells: SK-MEL-28
T1 sequence (P06213 28-1382): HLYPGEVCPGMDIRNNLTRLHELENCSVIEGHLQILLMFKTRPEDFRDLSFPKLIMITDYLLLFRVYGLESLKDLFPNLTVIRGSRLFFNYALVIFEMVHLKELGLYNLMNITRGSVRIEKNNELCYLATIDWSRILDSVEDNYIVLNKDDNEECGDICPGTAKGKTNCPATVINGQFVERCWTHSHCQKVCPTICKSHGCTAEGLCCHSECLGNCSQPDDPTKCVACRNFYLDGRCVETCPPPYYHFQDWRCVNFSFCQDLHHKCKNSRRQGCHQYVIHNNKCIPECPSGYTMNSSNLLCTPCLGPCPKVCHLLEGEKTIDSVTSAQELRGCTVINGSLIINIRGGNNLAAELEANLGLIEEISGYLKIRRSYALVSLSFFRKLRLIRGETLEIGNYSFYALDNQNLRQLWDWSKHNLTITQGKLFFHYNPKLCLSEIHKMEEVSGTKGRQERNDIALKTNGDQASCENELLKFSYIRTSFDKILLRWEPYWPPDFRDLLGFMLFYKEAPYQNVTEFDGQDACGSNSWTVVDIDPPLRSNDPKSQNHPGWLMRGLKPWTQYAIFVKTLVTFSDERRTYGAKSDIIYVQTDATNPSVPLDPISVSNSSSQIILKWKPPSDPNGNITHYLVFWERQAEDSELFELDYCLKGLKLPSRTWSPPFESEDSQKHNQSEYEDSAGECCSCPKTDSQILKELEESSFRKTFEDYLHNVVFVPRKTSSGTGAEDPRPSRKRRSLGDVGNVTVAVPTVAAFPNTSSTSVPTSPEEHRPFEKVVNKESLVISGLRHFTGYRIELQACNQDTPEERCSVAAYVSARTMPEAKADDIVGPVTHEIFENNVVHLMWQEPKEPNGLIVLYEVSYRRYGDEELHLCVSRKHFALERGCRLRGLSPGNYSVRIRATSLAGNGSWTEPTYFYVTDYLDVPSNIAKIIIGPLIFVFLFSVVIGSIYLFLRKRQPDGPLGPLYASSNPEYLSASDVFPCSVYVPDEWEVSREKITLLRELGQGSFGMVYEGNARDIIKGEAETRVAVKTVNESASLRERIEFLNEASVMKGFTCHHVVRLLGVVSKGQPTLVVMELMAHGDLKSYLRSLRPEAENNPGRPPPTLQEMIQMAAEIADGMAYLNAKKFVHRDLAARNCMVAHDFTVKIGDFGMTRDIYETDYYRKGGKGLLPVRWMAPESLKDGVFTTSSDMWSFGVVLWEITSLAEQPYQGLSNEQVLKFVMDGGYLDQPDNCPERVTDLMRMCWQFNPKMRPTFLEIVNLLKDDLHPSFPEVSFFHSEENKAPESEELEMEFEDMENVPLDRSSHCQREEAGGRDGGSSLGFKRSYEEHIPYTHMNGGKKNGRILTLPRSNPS
Experimental: SK-MEL-28 cells (density 60000/cm^2) were grown in 100 mm diameter dishes containing 10 ml RPMI 1640 supplemented with 10% fetal bovine serum (FBS) for 24 hours. After 24 hours fresh medium supplemented with 10% FBS was added together with or without 1 microgram/ml of compound 33. The dishes were incubated at 37° C. for 2 hours, after which the cells were lyzed and subjected to immunoprecipitation using 2 microliter of an anti-IR monoclonal antibody (18-44, ABCAM) and 20 microliter of agarose-conjugated protein G. Antibody-antigen complexes were allowed to form for 4 hours at 4° C. and after that collected by centrifugation at 4° C. for 1 minute at 5000 rpm. Immunoprecipitated complexes were separated by electrophoresis on an 8% polyacrylamide gel and electroblotted onto a nitrocellulose membrane (Amersham Bioscience). The efficiency of the immunoprecipitation was determined by using a polyclonal antibody against the beta-subunit of the insulin receptor (C-19; Santa Cruz Biotech.). Detection of the tyrosine phosphorylation of the insulin receptor was performed by incubation of the nitrocellulose membranes with an anti-phosphotyrosine antibody (4G10, Upstate Biotechnology Ltd., UK). […]

[5] = biological target: T2, IGF-1R (Homo sapiens, UniProt P08069); test: Inhibition of phosphorylation of IGF-1R in SK-MEL-28; assay type: cell-based; settings: compound 1000 ng/ml for 2 hours, IGF-1 20 ng/ml for 5 minutes; IGF-1 alone = 100
T2 construct: endogenous in cells; host or cells: SK-MEL-28
T2 sequence (P08069 31-1367): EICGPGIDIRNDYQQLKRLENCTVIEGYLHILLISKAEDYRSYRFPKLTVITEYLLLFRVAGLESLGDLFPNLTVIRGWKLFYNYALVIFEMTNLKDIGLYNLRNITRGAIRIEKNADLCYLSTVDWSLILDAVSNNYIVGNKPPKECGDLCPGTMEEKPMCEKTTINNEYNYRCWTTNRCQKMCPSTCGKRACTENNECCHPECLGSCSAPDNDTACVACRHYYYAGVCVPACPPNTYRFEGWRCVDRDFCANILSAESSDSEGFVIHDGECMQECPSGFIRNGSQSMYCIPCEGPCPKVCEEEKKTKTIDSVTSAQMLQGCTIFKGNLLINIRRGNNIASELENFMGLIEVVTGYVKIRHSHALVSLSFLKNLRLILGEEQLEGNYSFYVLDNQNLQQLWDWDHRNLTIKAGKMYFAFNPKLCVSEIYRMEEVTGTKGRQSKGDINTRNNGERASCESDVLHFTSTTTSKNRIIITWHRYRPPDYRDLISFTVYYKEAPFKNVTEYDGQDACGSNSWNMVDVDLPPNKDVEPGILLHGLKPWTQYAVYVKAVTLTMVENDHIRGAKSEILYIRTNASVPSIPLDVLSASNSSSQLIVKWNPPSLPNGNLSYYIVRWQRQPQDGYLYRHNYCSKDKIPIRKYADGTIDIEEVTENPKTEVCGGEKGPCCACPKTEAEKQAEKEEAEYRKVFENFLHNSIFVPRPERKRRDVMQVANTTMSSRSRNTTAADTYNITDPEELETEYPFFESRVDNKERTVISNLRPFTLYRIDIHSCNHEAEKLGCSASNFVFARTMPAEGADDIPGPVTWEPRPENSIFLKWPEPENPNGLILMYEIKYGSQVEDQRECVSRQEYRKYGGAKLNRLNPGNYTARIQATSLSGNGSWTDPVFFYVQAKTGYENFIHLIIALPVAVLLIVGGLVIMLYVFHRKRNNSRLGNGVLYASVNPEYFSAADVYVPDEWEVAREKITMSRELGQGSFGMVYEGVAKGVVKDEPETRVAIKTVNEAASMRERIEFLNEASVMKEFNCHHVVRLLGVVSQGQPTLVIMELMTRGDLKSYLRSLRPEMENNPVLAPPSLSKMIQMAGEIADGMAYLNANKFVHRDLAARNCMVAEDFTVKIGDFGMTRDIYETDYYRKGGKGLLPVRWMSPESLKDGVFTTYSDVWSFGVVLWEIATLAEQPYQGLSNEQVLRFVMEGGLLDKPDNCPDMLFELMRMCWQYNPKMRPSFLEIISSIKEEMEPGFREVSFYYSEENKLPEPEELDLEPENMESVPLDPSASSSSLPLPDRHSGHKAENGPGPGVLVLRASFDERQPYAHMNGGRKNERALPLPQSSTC
Experimental: IGF-1R: Assay without treatment with compounds (I). (Essentially as described by M. Rubini et al. Exp. Cell Res. 230(1997) 284-292).
SK-MEL-28 cells (density 60000/cm^2; 100 mm diameter dish containing 10 ml RPMI 1640) were starved for 24 hours at 37° C. and thereafter treated for 5 minutes at 37° C. with IGF-1 (200 ng, Sigma). Untreated cells served as control. The cells were lyzed and subjected to immunoprecipitation using a specific antibody against IGF-1R (alfa-IR3, Oncogene Science). Immunoprecipitates were separated by polyacrylamide gel electrophoresis and transferred to nitrocellulose membranes (Amersham Bioscience). The immunoprecipitated IGF-1 receptor was located on the nitrocellulose membrane using an antibody against the alfa-subunit of the IGF-1R (N-20:sc-712, Santa Cruz Biotech.). Detection of the tyrosine phosphorylation of the IGF-1 receptor was performed by incubation of the nitrocellulose membranes with an anti-phosphotyrosine antibody (4G10, Upstate Biotechnology Ltd., UK). To reveal the anti-IGF-1R rabbit polyclonal antibody and the anti-phosphotyrosine mouse monoclonal antibody, the membranes were incubated with anti-rabbit IgG and anti-mouse IgG antibodies coupled to HRP, respectively, and visualized by the use of an enhanced chemiluminescence (ECL) detection system (Pierce). […]

COc1ccc2c(c1)CCN(C(C)=O)C2c1cc(OC)c(OC)c(OC)c1 (racemic) [Example 3, 1-(3,4,5-trimethoxyphenyl)-2-acetyl-6-methoxy-1,2,3,4-tetrahydroisoquinoline]
percentage of Annexin-V positive cells ([1]; SK-Mel-28, 6 hours): 8%
percentage of Annexin-V positive cells ([1]; SK-Mel-28, 24 hours): 16%
percentage of Annexin-V positive cells ([1]; SK-Mel-28, 48 hours): 70%
percentage of Annexin-V positive cells ([2]; 6 hours): 8%
percentage of Annexin-V positive cells ([2]; 24 hours): 89%
induction of apoptosis ([2]; tested cell lines (Jurkat and SK-MEL 28), slower kinetics than SuperFasL): induces apoptosis
mitotic index SK-Mel-28 ([3]; 300 ng/ml): 5

COc1ccc2c(c1)CCN(C#N)C2c1cc(OC)c(OC)c(OC)c1 (single isomer, unassigned; (-)) [Example 33, (−)-1-(3,4,5-trimethoxyphenyl)-2-cyano-6-methoxy-1,2,3,4-tetrahydroisoquinoline]
difference in phosphorylation of the insulin receptor versus untreated cells [4]: No difference

COC(=O)Nc1nc2ccc(C(=O)c3cccs3)cc2[nH]1 [Nocodazole, reference compound]
mitotic index SK-Mel-28 ([3]; 10 μM): 2.9

COc1ccc2c(c1)CCCN(C)C2c1cc(OC)c(OC)c(OC)c1.Cl (stereo not shown) [Example 31, 1-(3,4,5-trimethoxyphenyl)-2-methyl-7-methoxy-2,3,4,5-tetrahydro-1H-2-bezazepine hydrochloride]
% phosphorylation of IGF-1R in SK-MEL-28 cells [5]: 10%
